Results on 3 compounds are retold here after US11007250B2, “Methods and kits for treating pain” (Duke University, priority 2017, dated 2021).

Test [1] deals with melanoma-bearing mice. As to the kind of experiment: Mouse melanoma model: spontaneous pain, von Frey test, CPP. It is filed as in vivo. The following applies: for spontaneous pain (licking/flinching) in melanoma-bearing mice: SSG 5 μg i.pl.
The test system of test [2] is small-diameter human DRG neurons. As to the kind of experiment: Patch clamp recordings in dissociated human DRG neurons. It is filed as cell-based. The following applies: SSG 11 μM. The procedure:
Primary cultures and patch clam recordings in human DRG neurons. Non-diseased human DRGs were obtained from donors through NDRI with permission of exemption from Duke IRB. Postmortem L3-L5 DRGs were dissected from 5 male donors at the age of 27, 31, 43, 54, and 67 and delivered in ice-cold culture medium to the laboratory at Duke University within 24-72 hours of death. Upon the delivery, DRGs were rapidly dissected from nerve roots and minced in a calcium-free HBSS (Gibco). Human DRG cultures were prepared as previously reported (Xu, Z Z, et al. 2015). DRGs were digested at 37° C. in humidified O2 incubator for 120 min with collagenase Type II (Worthington, 285 units/mg, 12 mg/ml final concentration) and dispase II (Roche, 1 unit/mg, 20 mg/ml) in PBS with 10 mM HEPES, pH adjusted to 7.4 with NaOH. DRGs were mechanically dissociated using fire-polished pipettes, filtered through a […] nylon mesh and centrifuged (500×g for 5 min). The pellet was resuspended, plated on 0.5 mg/ml poly-D-lysine-coated glass coverslips, and cells were grown in Neurobasal medium supplemented with 10% FBS, 2% B-27 supplement, 1% N-2 supplement, and 1% penicillin/streptomycin. Whole-cell patch clamp recordings in small-diameter DRG neurons (<55 μm) were conducted at room temperature using patch pipettes with resistances of 2-3 MD. […] The resting membrane potential was measured without a current injection.
(In general: In patch-clamp work, channel activity is measured electrically.)

In test [3] the test system is phosphorylation of SHP-1 (pSHP-1). The test is described as follows: pSHP-1 immunostaining in mouse DRG neurons. It is filed as cell-based. The following applies: dissociated DRG neurons; PD-L1 10 ng/ml, SSG 11 μM.
Test [4] relates to naive mice. As to the kind of experiment: Basal pain in naive mice (von Frey test, spontaneous pain). It is filed as in vivo, mouse.
Test [5] has as its system dissociated small-diameter mouse DRG neurons. The test is described as follows: Whole-cell patch clamp recordings in dissociated mouse DRG neurons. It is filed as cell-based. The following applies: SSG 11 μM. The procedure: Whole-cell patch clamp recordings in dissociated mouse DRG neuron. DRGs were aseptically removed from 4-7 week-old mice and digested with collagenase (0.2 mg/ml, Roche)/dispase-II (3 mg/ml, Roche) for 120 min. Cells were placed on glass cover slips coated with poly-D-lysine and grown in a neurobasal defined medium (10% fetal bovine serum and 2% B27 supplement) at 37° C. with 5% CO2/95% air for 24 h before experiments. Whole-cell voltage clamp recordings were performed at room temperature to measure transient sodium currents and action potentials, respectively, with an EPC10 amplifier (HEKA) and an Axopatch-200B amplifier with a Digidata 1440A (Axon Instruments) (Xu, Z Z, et al. 2015). The patch pipettes were pulled from borosilicate capillaries (Chase Scientific Glass Inc.). When filled with the pipette solution, the resistance of the pipettes was 4-5 MQ. The recording chamber (300 μl) was continuously superfused (3-4 ml/min). Series resistance was compensated for (>80%), and leak subtraction was performed. Data were low-pass-filtered at 2 KHz, sampled at 10 KHz. The pClamp10 (Axon Instruments) software was used during experiments and analysis. For sodium current recording, pipette solution contained (in mM): CsCl 130, NaCl 9, MgCl2 1, EGTA 10, HEPES 10, adjusted to pH 7.4 with CsOH. […] RMP was measured without a current injection.

Test [6] relates to TREK2 in CHO cells co-expressing PD-1 and TREK2. The test is described as follows: Patch clamp recordings in transfected CHO cells. It is filed as cell-based. The following applies: SSG. The procedure:
CHO cell culture, transfection and electrophysiology. CHO cell line was purchased from Duke Cell Culture Facility. Cells were cultured in high glucose (4.5 g/L) Dulbecco's Modified Eagle's Medium containing 10% (v/v) fetal bovine serum (Gibco). Transfection (1 μg cDNA) was performed with Lipofectamine™ 2000 Reagent (Invitrogen) at 70% confluency and the transfected cells were cultured in the same growth medium for 48 h before electrophysiological and biochemical studies. PD1/PDCD1 cDNA construct (SC117011, NM_005018) and TREK2/KCNK10 cDNA construct (SC110477, NM_021161) were purchased from Origene Technologies.
Whole-cell patch clamp recordings in transfected CHO cells were conducted at room temperature using patch pipettes with resistances of 5-6 MD. The recording chamber was continuously superfused (3-4 ml/min). The data were acquired at a rate of 10 kHz and filtered at 3 kHz using an EPC-10 amplifier (HEKA, Germany). Pipette solution contained (in mM): K-gluconate 126, NaCl 10, MgCl2 1, EGTA 10, NaATP 2, and MgGTP 0.1, adjusted to pH 7.3 with KOH. The external solution was composed of (in mM): NaCl 140, KCl 5, CaCl2 2, MgCl2 1, HEPES 10, glucose 10, adjusted to pH 7.4 with NaOH. […] In current-clamp experiments, the resting membrane potential was measured without any membrane potential compensation.

Test [7] deals with mice. As to the kind of experiment: Tail-flick and hot-plate tests of morphine antinociception. It is filed as in vivo, mouse. The following applies: morphine 10 mg/kg s.c. On the procedure: Tail-flick test. All animals were habituated to testing environment for at least 2 days before baseline testing. Mice were gently held by a hand with a terry glove and with tails exposed. The distal 3 cm of the tail was immersed into the 50° C. hot water. The tail-flick latency was the time required for a mouse to flick or remove its tail out of the water. A maximum cut-off value of 15 seconds was set to avoid thermal injury. Tail-flick latency was determined both before and after drug injection. Data are expressed as the maximum possible effect (MPE) calculated as MPE (%)=100×[(postdrug response baseline response)/(cutoff response−baseline response)]. The MPE (%) data from each animal were converted to area under the curve (AUC).
Hot-plate test. All animals were habituated to testing environment for at least 2 days before baseline testing. […] A maximum cut-off value of 40 seconds was set to avoid tissue injury. Data are expressed as the maximum possible effect (MPE) calculated as MPE (%)=100×[(postdrug response−baseline response)/(cutoff response−baseline response)]. The MPE (%) data from each animal were converted to area under the curve (AUC).
(In general: Hot-plate and tail-flick tests time the reaction to a heat stimulus.)

Test [8] deals with small-diameter neurons of whole-mount DRG. The test is described as follows: Whole-cell patch clamp recordings in whole mount DRGs ex vivo. It is filed as cell-based, mouse. The following applies: WT whole mount DRG; sPD-1 30 ng/ml, Nivolumab 300 ng/ml. The procedure:
Whole-cell patch clamp recordings in whole mount DRGs of mice ex vivo. L4-L5 DRGs were carefully removed 4 days after sham surgery or CCI surgery and placed in cold oxygenated ACSF. The connective tissue was gently removed under a microscope and the ganglia were digested with a mixture of 0.4 mg/mL trypsin (Sigma) and 1.0 mg/ml type-A collagenase (Sigma) for 30 min at 37° C. The intact ganglia were then incubated in ACSF oxygenated with 95% O2 and 5% CO2 at 28° C. for at least 1 h before transferring them to the recording chamber. DRG neurons were visualized with a 40× water-immersion objective using a BX51WI microscope (Olympus). Whole-cell current and voltage recordings were acquired with an Axon700B amplifier. Patch pipettes (4-7 MO) were pulled from borosilicate glass capillaries on P-97 puller. The recording chamber (300 μl) was continuously superfused (3-4 ml/min). Series resistance was compensated for (>80%), and leak subtraction was performed. The pipette solution contained (in mM): 140 KCl, 2 MgCl2, 10 Hepes, 2 Mg-ATP, pH 7.4. Osmolarity was adjusted to 290-300 mOsm. Data was acquired with a Digidata 1322A acquisition system (molecular devices) using pCLAMP 9.0 software. Signals were low-pass filtered at 5 kHz, sampled at 10 kHz and analyzed offline.

In test [9] the test system is T cell, macrophage and inflammatory cytokine marker mRNA. The test is described as follows: Quantitative real-time RT-PCR of immune markers in melanoma-bearing hindpaw skin. The following applies: 3 h after sPD-1 treatment (5 μg, i.pl.), MCI-4w. (Real-time PCR tracks product formation cycle by cycle.)
Test [10] deals with lamina 110 neurons in spinal cord slices. The test is described as follows: Patch clamp recordings of sEPSCs in spinal cord slices. The following applies: PD-L1 30 ng/ml, sPD-1 30 ng/ml perfusion; Nivolumab 300 ng/ml, 3 h. It is filed as cell-based, mouse.
The mark [11] stands for this setting: MCI-4w, sPD-1 5 μg i.pl., siRNA 2 μg peri-sciatic, Nivolumab 3-10 mg/kg i.v., RMP1-14 10 mg/kg i.v.
The mark [12] stands for this setting: i.pl., sPD-1 5 μg, RMP1-14 5 μg, Nivolumab 10 μg.

With `O.O.O.O.O.O.O.O.O.O=C([O-])[C@@H]1[O][Sb]2([O-])([O][Sb]34([OH])[O][C@H]([C@H](O)CO)[C@H]([O]3)[C@H](C(=O)[O-])[O]4)[O][C@H]([C@H](O)CO)[C@@H]1[O]2.[Na+].[Na+].[Na+]` [SSG, sodium stibogluconate], the “spontaneous pain (licking/flinching) in melanoma-bearing mice” value in test [1] (setting [11]) is “elicited spontaneous pain”. The entries for the “effect on PD-L1-induced inhibition of sodium currents” value in [2] and in test [5] were “completely blocked” and “partially blocked”, respectively. Also, in [3], the “effect on PD-L1-induced SHP-1 phosphorylation” value was “blocked”. In addition, the “effect on analgesic effect of PD-L1” value in test [4] (i.pl. SSG plus PD-L1, naive mice) is “abolished”. Also, the “effect on PD-L1-induced RMP change” value in test [6] (CHO cells co-expressing PD-1 and TREK2) is given as “blocked”. Moreover, the “effect on PD-L1 potentiation of TREK2 currents and Erev shift” value in test [6] (PD-1/TREK2 co-expressing CHO cells) is “abolished”.
For the compound `CN1CC[C@]23c4c5ccc(O)c4O[C@H]2[C@@H](O)C=C[C@H]3[C@H]1C5` [morphine], the “analgesic effect of morphine after human IgG” value in [7] (human IgG i.v.) is “typical analgesic effect”. Besides, the “analgesic effect of morphine in Pd1−/− mice compared to WT” value in [7] was “reduced analgesic (antinociceptive) effect”.
Regarding “sPD-1: soluble PD-1 used to neutralize PD-L1; Mouse PD-1 from R&D (1021-PD-100)”, in [1] (setting [11]), the “mechanical allodynia in melanoma-bearing mice” value was “induced mechanical allodynia” and the “spontaneous pain (licking/flinching) in melanoma-bearing mice” value is “marked spontaneous pain”. Besides, in test [1] (i.pl. sPD-1, two-chamber test), the “conditioned place preference (CPP), ongoing pain” value is recorded as “marked CPP”. In addition, the “onset of spontaneous pain after injection” value in test [1] (sPD-1 5 μg i.pl., MCI-4w) is 10 to 30 min. Moreover, in test [8], the “firing rate of action potentials” value is given as “increased the firing rate”. Further, in test [9], the “mRNA levels of immune/inflammatory markers in hindpaw skin” value was “did not alter”. In test [10], the “amplitude of spontaneous EPSCs (sEPSCs)” value is listed as “not amplitude” and the “frequency of spontaneous EPSCs (sEPSCs)” value is listed as “increased sEPSC frequency”. In addition, in [4] (setting [12]), the “duration of mechanical allodynia in naive mice” value is 3 h and the “mechanical allodynia in naive mice” value is given as “transient mechanical allodynia”. Moreover, the “spontaneous pain in naive mice” value in test [4] (sPD-1 5 μg i.pl.) is “without causing spontaneous pain”.
